The text below walks through data of article doi:10.1101/2025.04.28.650819v3 (biorxiv, 2025).

The target of one assay is T1, FtsZ (Mycobacterium tuberculosis, UniProt P9WN95).
T1 sequence (P9WN95 1-379): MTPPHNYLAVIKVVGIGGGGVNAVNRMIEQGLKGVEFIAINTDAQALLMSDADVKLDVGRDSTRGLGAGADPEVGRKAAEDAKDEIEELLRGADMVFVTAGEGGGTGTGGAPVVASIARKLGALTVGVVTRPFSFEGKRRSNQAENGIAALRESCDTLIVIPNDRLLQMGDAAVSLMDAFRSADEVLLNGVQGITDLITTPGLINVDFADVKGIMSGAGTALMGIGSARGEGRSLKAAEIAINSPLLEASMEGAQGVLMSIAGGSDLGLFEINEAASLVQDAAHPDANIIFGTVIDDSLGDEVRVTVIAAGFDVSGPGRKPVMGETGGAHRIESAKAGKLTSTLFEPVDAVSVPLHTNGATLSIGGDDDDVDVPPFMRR
Put plainly: thermal shift assay. Type of assay: binding. The conditions noted are these: read-out: thermal shift (dTm) at 100 μM, 16 h.

For the next assay, the target named is PheRS (Mycobacterium tuberculosis, UniProt P9WFU3). Nature of the assay: ATP consumption assay. Format: biochemical.
PheRS, sequence (P9WFU3 whole entry): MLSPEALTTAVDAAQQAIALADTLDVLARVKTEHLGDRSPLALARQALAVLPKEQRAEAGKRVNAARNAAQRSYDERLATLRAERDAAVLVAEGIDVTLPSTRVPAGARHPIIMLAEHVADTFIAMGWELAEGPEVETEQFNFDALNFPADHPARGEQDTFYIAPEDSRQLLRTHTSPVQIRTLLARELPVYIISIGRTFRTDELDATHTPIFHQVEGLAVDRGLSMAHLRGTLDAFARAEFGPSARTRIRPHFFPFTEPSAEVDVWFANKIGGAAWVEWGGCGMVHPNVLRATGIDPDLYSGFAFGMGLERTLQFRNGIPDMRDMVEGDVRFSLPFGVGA
PheRS, sequence (P9WFU1 whole entry partner): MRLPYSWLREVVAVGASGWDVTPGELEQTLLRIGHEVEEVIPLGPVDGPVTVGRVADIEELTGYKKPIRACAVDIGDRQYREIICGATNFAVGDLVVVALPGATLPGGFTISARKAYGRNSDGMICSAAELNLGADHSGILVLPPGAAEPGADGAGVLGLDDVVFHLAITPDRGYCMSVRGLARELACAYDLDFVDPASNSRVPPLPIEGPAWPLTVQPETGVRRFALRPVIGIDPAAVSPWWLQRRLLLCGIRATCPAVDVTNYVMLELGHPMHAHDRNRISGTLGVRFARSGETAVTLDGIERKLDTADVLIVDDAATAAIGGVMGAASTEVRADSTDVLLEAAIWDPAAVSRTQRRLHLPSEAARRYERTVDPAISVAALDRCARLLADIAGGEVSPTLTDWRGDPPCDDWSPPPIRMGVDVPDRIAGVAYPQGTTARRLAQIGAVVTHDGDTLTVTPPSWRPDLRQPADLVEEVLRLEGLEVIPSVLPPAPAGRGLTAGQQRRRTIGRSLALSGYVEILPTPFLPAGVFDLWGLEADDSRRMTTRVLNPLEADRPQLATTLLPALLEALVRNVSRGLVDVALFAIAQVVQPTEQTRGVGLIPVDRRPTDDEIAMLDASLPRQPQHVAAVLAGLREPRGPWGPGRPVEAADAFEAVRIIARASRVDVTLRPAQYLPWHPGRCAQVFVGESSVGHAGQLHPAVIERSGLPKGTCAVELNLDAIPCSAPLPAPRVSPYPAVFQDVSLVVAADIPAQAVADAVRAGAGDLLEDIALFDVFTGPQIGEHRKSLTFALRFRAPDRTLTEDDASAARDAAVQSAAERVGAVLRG

For orientation: IC50 means the concentration that gives 50% inhibition. The low end stands for greater potency in that assay, the high end for weaker potency in that assay. `O=C(Nc1cccc(-c2nn[nH]n2)c1)c1ccc2nc(-c3ccccc3)[nH]c2c1` [GDI-10928]: the ΔTm at 100 µM at FtsZ came to 1.84 °C. Also, half-maximal inhibition against PheRS (IC50) was put at 120 µM.

Consider `CC(=O)Nc1cc(Nc2cc(NC3CC3)n3ncc(C#N)c3n2)ccc1N(C)CC(=O)Nc1cccc(C(F)(F)F)c1` [GDI-10996], for which, on FtsZ, the ΔTm at 100 µM was 1.25 °C.
